According to BindingDB's records for doi:10.1021/jm0502891 (Inotek Pharmaceuticals, 2005):

biological target: Poly [ADP-ribose] polymerase 1 (Homo sapiens, UniProt P09874); experiment: PARP ELISA Assay; conditions: pH 8; 22 °C
Description: The assay was performed in 96-well ELISA plates according to instructions provided with a commercially available PARP inhibition assay kit (Trevigen, Gaithersburg, MD). After incubation, incorporated biotin was detected by peroxidase-conjugated streptavidin and TACS Sapphire substrate.

Sequence of Poly [ADP-ribose] polymerase 1 (P09874 whole entry): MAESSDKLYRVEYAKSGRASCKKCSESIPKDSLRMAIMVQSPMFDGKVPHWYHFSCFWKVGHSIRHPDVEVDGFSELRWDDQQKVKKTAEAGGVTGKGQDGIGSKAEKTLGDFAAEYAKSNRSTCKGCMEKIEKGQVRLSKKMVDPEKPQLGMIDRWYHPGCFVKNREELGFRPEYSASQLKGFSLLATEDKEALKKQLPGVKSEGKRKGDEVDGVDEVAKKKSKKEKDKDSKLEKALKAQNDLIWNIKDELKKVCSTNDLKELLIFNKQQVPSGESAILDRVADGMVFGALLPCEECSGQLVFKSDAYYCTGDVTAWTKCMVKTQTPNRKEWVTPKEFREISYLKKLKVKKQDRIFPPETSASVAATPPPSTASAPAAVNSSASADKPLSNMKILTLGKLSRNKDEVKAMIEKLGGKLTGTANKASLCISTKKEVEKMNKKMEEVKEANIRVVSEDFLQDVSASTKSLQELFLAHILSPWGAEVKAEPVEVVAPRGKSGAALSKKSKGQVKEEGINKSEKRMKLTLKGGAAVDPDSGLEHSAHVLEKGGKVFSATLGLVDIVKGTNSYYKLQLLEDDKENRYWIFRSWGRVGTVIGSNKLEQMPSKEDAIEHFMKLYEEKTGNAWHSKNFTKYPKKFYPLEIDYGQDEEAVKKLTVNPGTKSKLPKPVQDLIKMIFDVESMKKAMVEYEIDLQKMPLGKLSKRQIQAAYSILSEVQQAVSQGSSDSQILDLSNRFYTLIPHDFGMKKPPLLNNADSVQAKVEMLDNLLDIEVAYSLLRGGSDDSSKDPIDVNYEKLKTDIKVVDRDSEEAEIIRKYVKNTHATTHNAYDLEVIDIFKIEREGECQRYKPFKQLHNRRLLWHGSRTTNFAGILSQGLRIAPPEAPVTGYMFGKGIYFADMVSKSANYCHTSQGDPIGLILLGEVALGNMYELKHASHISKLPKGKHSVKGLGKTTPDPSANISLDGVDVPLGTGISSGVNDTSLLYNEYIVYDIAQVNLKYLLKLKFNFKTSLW

Row | IC50 [nM] | Compound
1 | 400 | O=C(CCCN1CCOCC1)Nc1ccc2c(c1)-c1[nH]c(=O)c3ccccc3c1C2 [4-(morpholin-4-yl)-N-{8-oxo-9-azatetracyclo[8.7.0.0^{2,7}.0^{11,16}]heptadeca-1(10),2(7),3,5,11(16),12,14-heptaen-13-yl}butanamide]
2 | 800 | C[N+]1(CCCNS(=O)(=O)c2ccc3c(c2)Cc2c-3[nH]c(=O)c3ccccc23)CCOCC1 [4-methyl-4-[3-({8-oxo-9-azatetracyclo[8.7.0.0^{2,7}.0^{11,16}]heptadeca-1(10),2(7),3,5,11(16),12,14-heptaene-14-}sulfonamido)propyl]morpholin-4-ium iodide]
3 | 450 | O=c1[nH]c2c(c3ccccc13)Cc1cc(S(=O)(=O)NN3CCOCC3)c(F)cc1-2 [13-fluoro-N-(morpholin-4-yl)-8-oxo-9-azatetracyclo[8.7.0.0^{2,7}.0^{11,16}]heptadeca-1(10),2(7),3,5,11(16),12,14-heptaene-14-sulfonamide]
